# In USRE50528E1, “Compounds and compositions for modulating EGFR mutant kinase activities” (Yuhan Corporation, priority 2014, dated 2025):
# Assays:
# [1] = biological target: T1, EGFR mutant Del19 (E746-A750) (Homo sapiens, UniProt P00533, DEL746-750); assay: Kinase inhibition assay, EGFR del E746-A750; assay type: biochemical; conditions: read-out: EGFR mutants Del19 (E746-A750);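 note: truncated human EGFR mutant kinase, two-hour preincubation with compound, then one-hour reaction with ATP and ULight-PolyGT peptide, LANCE Europium-antibody phosphorylation readout, IC50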
# T1 construct: truncated human JAK3, EGFR mutants such as del E746-A750; purchased Carna Biosciences
# T1 sequence (P00533 with tags, fused parts or gaps DEL746-750 limits assumed): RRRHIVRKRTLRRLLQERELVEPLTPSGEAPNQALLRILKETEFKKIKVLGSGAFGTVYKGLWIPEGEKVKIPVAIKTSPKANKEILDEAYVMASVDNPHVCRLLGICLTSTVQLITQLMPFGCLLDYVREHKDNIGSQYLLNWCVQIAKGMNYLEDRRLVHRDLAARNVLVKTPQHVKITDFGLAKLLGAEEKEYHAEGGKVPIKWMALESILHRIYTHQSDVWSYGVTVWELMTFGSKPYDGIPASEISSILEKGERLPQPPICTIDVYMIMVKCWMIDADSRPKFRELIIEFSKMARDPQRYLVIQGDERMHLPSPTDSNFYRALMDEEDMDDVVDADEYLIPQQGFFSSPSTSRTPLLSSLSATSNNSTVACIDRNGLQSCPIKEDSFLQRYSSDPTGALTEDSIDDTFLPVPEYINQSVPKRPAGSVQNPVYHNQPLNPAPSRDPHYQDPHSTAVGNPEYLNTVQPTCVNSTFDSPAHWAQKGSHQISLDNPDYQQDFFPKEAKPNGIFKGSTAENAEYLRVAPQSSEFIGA
# [2] = biological target: T2, EGFR mutant L858R (Homo sapiens, UniProt P00533, L858R); assay: Kinase inhibition assay, EGFR L858R; assay type: biochemical; conditions: read-out: EGFR mutants L858R;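 note: truncated human EGFR L858R kinase with compound preincubation, ULight-PolyGT peptide phosphorylation read by Europium-antibody Lance detection, IC50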
# T2 construct: truncated human JAK3, EGFR mutants such as del E746-A750; purchased Carna Biosciences
# T2 sequence (P00533 669-1210 L858R limits assumed): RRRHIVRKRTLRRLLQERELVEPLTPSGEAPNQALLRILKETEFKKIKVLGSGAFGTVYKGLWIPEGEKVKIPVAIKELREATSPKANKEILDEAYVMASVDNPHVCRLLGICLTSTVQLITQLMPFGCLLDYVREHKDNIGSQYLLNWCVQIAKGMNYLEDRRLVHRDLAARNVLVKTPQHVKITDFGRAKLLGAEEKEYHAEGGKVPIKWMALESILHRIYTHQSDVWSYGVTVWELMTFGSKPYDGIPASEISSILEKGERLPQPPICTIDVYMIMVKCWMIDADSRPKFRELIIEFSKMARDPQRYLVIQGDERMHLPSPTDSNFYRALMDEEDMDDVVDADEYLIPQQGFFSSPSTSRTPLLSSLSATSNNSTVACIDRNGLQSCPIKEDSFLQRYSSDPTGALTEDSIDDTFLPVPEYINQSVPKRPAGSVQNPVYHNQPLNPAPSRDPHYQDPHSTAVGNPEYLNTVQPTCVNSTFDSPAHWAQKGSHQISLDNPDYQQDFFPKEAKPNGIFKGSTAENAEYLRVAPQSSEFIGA
# [3] = biological target: T3, EGFR mutant L858R/T790M (Homo sapiens, UniProt P00533, L858R/T790M); assay: Kinase inhibition assay, EGFR L858R/T790M; assay type: biochemical; conditions: read-out: EGFR mutants L858R/T790M;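 note: truncated human enzyme preincubated two hours with compound, then one hour with one millimolar ATP and ULight-PolyGT peptide, Europium-labeled antibody detection, IC50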
# T3 construct: truncated human JAK3, EGFR mutants such as del E746-A750; purchased Carna Biosciences
# T3 sequence (P00533 669-1210 T790M/L858R limits assumed): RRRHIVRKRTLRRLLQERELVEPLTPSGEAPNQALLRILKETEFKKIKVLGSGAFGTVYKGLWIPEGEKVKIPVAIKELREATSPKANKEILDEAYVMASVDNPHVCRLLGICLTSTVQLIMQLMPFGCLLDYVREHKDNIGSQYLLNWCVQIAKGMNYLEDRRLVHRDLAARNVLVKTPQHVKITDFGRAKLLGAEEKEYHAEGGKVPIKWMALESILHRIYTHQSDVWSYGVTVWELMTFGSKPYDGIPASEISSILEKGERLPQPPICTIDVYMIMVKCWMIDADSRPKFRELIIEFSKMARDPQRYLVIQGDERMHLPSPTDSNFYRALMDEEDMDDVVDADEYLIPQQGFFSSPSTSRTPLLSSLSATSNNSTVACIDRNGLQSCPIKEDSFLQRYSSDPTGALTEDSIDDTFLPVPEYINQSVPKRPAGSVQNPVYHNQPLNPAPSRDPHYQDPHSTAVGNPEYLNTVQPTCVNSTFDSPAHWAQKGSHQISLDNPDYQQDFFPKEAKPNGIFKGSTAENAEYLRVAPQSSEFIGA
# [4] = biological target: T4, EGFR mutant Del19/T790M (Homo sapiens, UniProt P00533, DEL746-750/T790M); assay: Kinase inhibition assay, EGFR del E746-A750/T790M; assay type: biochemical; conditions: read-out: EGFR mutants Del19/T790M
# T4 construct: truncated human JAK3, EGFR mutants such as del E746-A750; purchased Carna Biosciences
# T4 sequence (P00533 with tags, fused parts or gaps DEL746-750/T790M limits assumed): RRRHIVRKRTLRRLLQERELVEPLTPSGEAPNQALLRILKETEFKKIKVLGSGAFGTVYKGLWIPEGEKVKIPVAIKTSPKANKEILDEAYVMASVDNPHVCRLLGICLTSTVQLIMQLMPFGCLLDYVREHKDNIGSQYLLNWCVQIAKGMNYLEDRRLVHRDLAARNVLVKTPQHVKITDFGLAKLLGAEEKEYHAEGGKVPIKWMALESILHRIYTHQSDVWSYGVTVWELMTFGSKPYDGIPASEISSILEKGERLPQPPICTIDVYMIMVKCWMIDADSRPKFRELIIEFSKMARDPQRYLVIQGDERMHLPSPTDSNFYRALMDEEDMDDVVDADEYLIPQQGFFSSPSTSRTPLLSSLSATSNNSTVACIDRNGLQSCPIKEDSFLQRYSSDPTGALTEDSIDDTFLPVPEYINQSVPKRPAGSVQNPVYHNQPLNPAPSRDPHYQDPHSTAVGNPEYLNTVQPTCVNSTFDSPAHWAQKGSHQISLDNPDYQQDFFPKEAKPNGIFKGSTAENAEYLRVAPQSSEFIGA
# [5] = biological target: T5, SYK (Homo sapiens, UniProt P43405); assay: Kinase inhibition assay, SYK; assay type: biochemical; conditions: biochemical potency;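 note: purified full-length human SYK pre-incubated 30 min with compound, then ULight-TK peptide phosphorylation for 1 h, detected with Europium-labeled antibody in Lance buffer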
# T5 construct: Purified human, full-length SYK, KDR; purchased Carna Biosciences
# [6] = biological target: T6, KDR (Homo sapiens, UniProt P35968); assay: Kinase inhibition assay, KDR; assay type: biochemical; conditions: biochemical potency;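 note: purified full-length human KDR, 30 min preincubation with compound, then 1 h reaction with ATP and Ulight-Jak1 peptide substrate, phosphorylation read by Lance Europium antibody detection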
# T6 construct: Purified human, full-length SYK, KDR; purchased Carna Biosciences
# T6 sequence (P35968 20-1356): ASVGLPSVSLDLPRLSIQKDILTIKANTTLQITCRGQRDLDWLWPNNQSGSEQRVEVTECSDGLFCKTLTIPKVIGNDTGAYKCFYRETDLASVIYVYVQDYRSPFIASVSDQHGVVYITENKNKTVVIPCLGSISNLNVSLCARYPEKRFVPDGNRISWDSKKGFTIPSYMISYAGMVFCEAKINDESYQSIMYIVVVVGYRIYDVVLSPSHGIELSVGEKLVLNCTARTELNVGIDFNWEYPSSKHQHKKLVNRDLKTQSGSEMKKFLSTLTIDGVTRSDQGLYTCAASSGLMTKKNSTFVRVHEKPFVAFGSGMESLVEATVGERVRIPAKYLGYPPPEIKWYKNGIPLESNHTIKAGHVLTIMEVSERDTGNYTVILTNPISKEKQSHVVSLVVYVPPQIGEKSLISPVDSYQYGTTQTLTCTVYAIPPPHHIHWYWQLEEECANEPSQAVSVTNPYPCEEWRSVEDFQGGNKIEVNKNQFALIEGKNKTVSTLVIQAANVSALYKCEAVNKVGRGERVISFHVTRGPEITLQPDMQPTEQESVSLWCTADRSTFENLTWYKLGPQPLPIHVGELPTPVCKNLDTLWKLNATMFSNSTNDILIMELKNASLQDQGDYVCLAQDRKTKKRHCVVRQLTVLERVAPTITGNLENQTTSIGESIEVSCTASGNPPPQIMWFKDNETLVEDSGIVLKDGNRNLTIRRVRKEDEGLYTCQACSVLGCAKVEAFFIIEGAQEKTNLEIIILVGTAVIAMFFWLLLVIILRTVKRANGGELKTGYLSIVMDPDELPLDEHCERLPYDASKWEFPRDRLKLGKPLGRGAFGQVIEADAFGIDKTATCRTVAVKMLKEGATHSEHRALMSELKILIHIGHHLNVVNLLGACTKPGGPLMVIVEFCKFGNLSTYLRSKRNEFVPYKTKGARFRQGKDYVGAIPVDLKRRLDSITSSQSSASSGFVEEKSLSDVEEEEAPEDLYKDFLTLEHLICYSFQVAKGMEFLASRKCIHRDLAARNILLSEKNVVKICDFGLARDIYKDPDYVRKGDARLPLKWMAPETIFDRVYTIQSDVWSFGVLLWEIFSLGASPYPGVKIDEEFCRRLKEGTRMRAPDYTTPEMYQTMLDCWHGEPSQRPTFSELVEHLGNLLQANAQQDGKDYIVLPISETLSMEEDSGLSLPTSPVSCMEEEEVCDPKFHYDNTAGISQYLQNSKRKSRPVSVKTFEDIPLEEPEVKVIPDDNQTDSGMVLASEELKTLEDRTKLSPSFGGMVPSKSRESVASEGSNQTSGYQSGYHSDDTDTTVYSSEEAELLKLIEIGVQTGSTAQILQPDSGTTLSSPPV
# [7] = test system: H2073 (EGFR wildtype); assay: Cell viability assay, H2073; assay type: cell-based; conditions: NCI-H2073; cellular potency; 72-hour incubation; ATPLite;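 note: NSCLC cell line whose survival relies on wildtype EGFR, treated with serially diluted compound, cytotoxic effect judged from remaining cell viability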
# [8] = test system: PC9 (EGFR del E746-A750 mutant); assay: Cell viability assay, PC9; assay type: cell-based; conditions: for Selectivity over wildtype, Wildtype vs mutant H2073/PC9 (fold): cellular potency ratio; for IC50: cellular potency, 72-hour incubation, ATPLite, read-out: EGFR Mutants PC9;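 for all read-outs here: NSCLC PC9 cells, whose viability relies on EGFR del E746-A750, exposed to serially diluted compound for 72 h at 37 °C, ATPLite read-out, IC50, H2073 as EGFR wildtype line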
# [9] = test system: H1975 (EGFR L858R/T790M mutant); assay: Cell viability assay, H1975; assay type: cell-based; conditions: for IC50: Homo sapiens, NCI-H1975, cellular potency, 72-hour incubation, ATPLite, read-out: EGFR Mutants H1975; for Selectivity over wildtype, Wildtype vs mutant H2073/H1975 (fold): cellular potency ratio;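 for all read-outs here: NSCLC cells whose survival relies on EGFR L858R/T790M, exposed 72 h to serially diluted compound, ATP-based viability readout, with the H2073 line (wildtype EGFR dependent) as wildtype comparator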
# [10] = biological target: T7, EGFR mutant T790M (Homo sapiens, UniProt P00533, T790M); assay: Kinase inhibition assay, EGFR mutant T790M; conditions: biochemical potency;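 note: truncated human EGFR mutant enzyme preincubated two hours with compound, then ATP plus ULight-PolyGT peptide for one hour, Europium-labeled antibody LANCE detection, IC50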
# T7 construct: truncated human JAK3, EGFR mutants such as del E746-A750; purchased Carna Biosciences
# T7 sequence (P00533 669-1210 T790M limits assumed): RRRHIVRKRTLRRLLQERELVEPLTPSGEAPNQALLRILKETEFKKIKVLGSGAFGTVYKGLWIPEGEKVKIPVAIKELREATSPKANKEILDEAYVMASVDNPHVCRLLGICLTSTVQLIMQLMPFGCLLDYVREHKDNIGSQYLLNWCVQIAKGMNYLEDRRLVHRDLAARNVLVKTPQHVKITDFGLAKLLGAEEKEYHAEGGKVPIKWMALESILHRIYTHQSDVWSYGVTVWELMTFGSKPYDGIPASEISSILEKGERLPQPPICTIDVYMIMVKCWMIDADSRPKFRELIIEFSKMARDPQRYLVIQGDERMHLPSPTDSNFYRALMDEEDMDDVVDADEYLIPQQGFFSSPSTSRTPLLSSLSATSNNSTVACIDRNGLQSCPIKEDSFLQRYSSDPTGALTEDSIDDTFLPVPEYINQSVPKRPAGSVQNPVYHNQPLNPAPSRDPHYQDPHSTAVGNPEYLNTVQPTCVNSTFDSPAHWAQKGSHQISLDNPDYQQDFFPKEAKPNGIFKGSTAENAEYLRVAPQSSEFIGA
Compound,IC50 [1] [nM],IC50 [2] [nM],IC50 [3] [nM],IC50 [4] [nM],IC50 [5] [nM],IC50 [6] [nM],IC50 [7] [nM],IC50 [8] [nM],IC50 [9] [nM],IC50 [10] [nM],"Selectivity over wildtype, Wildtype vs mutant H2073/PC9 (fold) [8]","Selectivity over wildtype, Wildtype vs mutant H2073/H1975 (fold) [9]"
"C=CC(=O)Nc1cc(Nc2nccc(-n3cc(CN4CCC4)c(-c4ccc(C)cc4)n3)n2)c(OC)cc1N1CCOCC1 [Compound 82, N-(5-(4-(4-(azetidin-1-ylmethyl)-3-p-tolyl-1H-pyrazol-1-yl)pyrimidin-2-ylamino)-4-methoxy-2-morpholinophenyl)acrylamide]",< 20,20 to 200,< 20,< 20,> 1000,> 1000,> 1000,20 to 200,20 to 200,,101-200 fold,101-200 fold
"C=CC(=O)Nc1cc(Nc2nccc(-n3cc(CN(C)C)c(C(C)(C)C)n3)n2)c(OC)cc1N(C)CCOC [Compound 100, N-(5-(4-(3-tert-butyl-4-((dimethylamino)methyl)-1H-pyrazol-1-yl)pyrimidin-2-ylamino)-4-methoxy-2-((2-methoxyethyl)(methyl)amino)phenyl)acrylamide]",< 20,< 20,< 20,< 20,> 1000,,> 1000,20 to 200,20 to 200,20 to 200,101-200 fold,101-200 fold
"C=CC(=O)Nc1cc(Nc2nccc(-n3cc(CN(C)C)c(C4CC4)n3)n2)c(OC)cc1N(C)CCOC [Compound 106, N-(5-(4-(3-cyclopropyl-4-((dimethylamino)methyl)-1H-pyrazol-1-yl)pyrimidin-2-ylamino)-4-methoxy-2-((2-methoxyethyl)(methyl)amino)phenyl)acrylamide]",< 20,< 20,< 20,< 20,20 to 200,,> 1000,20 to 200,20 to 200,< 20,101-200 fold,101-200 fold
"C=CC(=O)Nc1cc(Nc2nccc(-n3cc(CN4CCC4)c(-c4cccs4)n3)n2)c(OC)cc1N1CCOCC1 [Compound 118, N-(5-(4-(4-(azetidin-1-ylmethyl)-3-(thiophen-2-yl)-1H-pyrazol-1-yl)pyrimidin-2-ylamino)-4-methoxy-2-morpholinophenyl)acrylamide]",< 20,< 20,< 20,< 20,20 to 200,,201 to 1000,< 20,< 20,< 20,20-200 fold,20-200 fold
"Cc1cc(C)cc(Nc2nccc(-n3cc(CN4CC(O)C4)c(C)n3)n2)c1 [Compound 147, 1-((1-(2-(3,5-dimethylphenylamino)pyrimidin-4-yl)-3-methyl-1H-pyrazol-4-yl)methyl)azetidin-3-ol, reference compound]",> 1000,> 1000,201 to 1000,> 1000,20 to 200,,> 1000,> 1000,> 1000,> 1000,<20 fold,<20 fold
"Cc1cc(Nc2nccc(-n3cc(CN4CC[C@@H](O)C4)c(C)n3)n2)cc(C)c1OCCN1CCCC1 [Compound 148, (R)-1-((1-(2-(3,5-dimethyl-4-(2-(pyrrolidin-1-yl)ethoxy)phenylamino)pyrimidin-4-yl)-3-methyl-1H-pyrazol-4-yl)methyl)pyrrolidin-3-ol, reference compound]",> 1000,> 1000,201 to 1000,201 to 1000,201 to 1000,,> 1000,> 1000,> 1000,> 1000,<20 fold,<20 fold
"Cc1cc(Nc2nccc(-n3cc(CN4CC(O)C4)c(C)n3)n2)cc(C)c1OCCO [Compound 149, 1-((1-(2-(4-(2-hydroxyethoxy)-3,5-dimethylphenylamino)pyrimidin-4-yl)-3-methyl-1H-pyrazol-4-yl)methyl)azetidin-3-ol, reference compound]",> 1000,> 1000,201 to 1000,> 1000,> 1000,,> 1000,> 1000,> 1000,> 1000,<20 fold,<20 fold

# Second part, led by results:
IC50 [1] [nM],IC50 [2] [nM],IC50 [3] [nM],IC50 [4] [nM],IC50 [5] [nM],IC50 [6] [nM],IC50 [7] [nM],IC50 [8] [nM],IC50 [9] [nM],IC50 [10] [nM],Compound,"Selectivity over wildtype, Wildtype vs mutant H2073/PC9 (fold) [8]","Selectivity over wildtype, Wildtype vs mutant H2073/H1975 (fold) [9]"
> 1000,20 to 200,20 to 200,201 to 1000,201 to 1000,,> 1000,> 1000,> 1000,> 1000,"Cc1cc(Nc2nccc(-n3cc(CN4CC(O)C4)c(C4CC4)n3)n2)cc(C)c1OCCO [Compound 151, 1-((3-cyclopropyl-1-(2-(4-(2-hydroxyethoxy)-3,5-dimethylphenylamino)pyrimidin-4-yl)-1H-pyrazol-4-yl)methyl)azetidin-3-ol, reference compound]",<20 fold,<20 fold
> 1000,> 1000,> 1000,> 1000,> 1000,,> 1000,> 1000,> 1000,> 1000,"CCC(=O)Nc1cc(Nc2nccc(-n3cc(CN(C)C)c(-c4ccccc4)n3)n2)c(OC)cc1N1CCOCC1 [Compound 157, N-(5-(4-(4-((dimethylamino)methyl)-3-phenyl-1H-pyrazol-1-yl)pyrimidin-2-ylamino)-4-methoxy-2-morpholinophenyl)propionamide, reference compound]",<20 fold,<20 fold
> 1000,> 1000,> 1000,> 1000,> 1000,,> 1000,20 to 200,201 to 1000,> 1000,"CCC(=O)Nc1cc(Nc2nccc(-n3cc(CN4CCC4)c(-c4ccccc4)n3)n2)c(OC)cc1N1CCOCC1 [Compound 158, N-(5-(4-(4-(azetidin-1-ylmethyl)-3-phenyl-1H-pyrazol-1-yl)pyrimidin-2-ylamino)-4-methoxy-2-morpholinophenyl)propionamide, reference compound]",<20 fold,<20 fold
> 1000,> 1000,20 to 200,20 to 200,> 1000,,> 1000,> 1000,> 1000,> 1000,"C=C(F)C(=O)Nc1cc(Nc2nccc(-n3cc(CN4CCC4)c(-c4ccccc4)n3)n2)c(OC)cc1N1CCOCC1 [Compound 159, N-(5-(4-(4-(azetidin-1-ylmethyl)-3-phenyl-1H-pyrazol-1-yl)pyrimidin-2-ylamino)-4-methoxy-2-morpholinophenyl)-2-fluoroacrylamide, reference compound]",<20 fold,<20 fold
